From patent publication US11883426B2, “Treatment for methamphetamine cardiovascular disease” (priority 2020, dated 2024)
Structures can show the parent of a compound that is named as a salt.

Legend:
[1] = Sulfide release with Sugammadex in human plasma; settings: human blood
Procedure: (§1) . Free sulfide was measured using 50 μl of plasma with MBB; whereas for detection of ALS and BSS, 50 μl of plasma was added separately into two sets of 4 mL BD vacutainer tubes. […]. Following a 30-min incubation on a nutator, the reaction liquid was removed, and the evolved sulfide gas subsequently trapped by adding 500 μl of 100 mM Tris-HCl buffer (pH 9.5, 0.1 mM DTPA) into the BD vacutainer tube and incubated again for 30 min on a nutator mixer. […]. Determination of ALS was made by reacting plasma samples with acidic phosphate buffer alone and subsequent trapping of evolved sulfide. Measurement of BSS was determined by subtracting the acid labile value from the total sulfide protocol containing TCEP reductant treatment under acidic conditions. […]

[2] = Sulfide release with Sugammadex in WT and CSE knockout mice; type: in vivo, mouse; settings: single injection 0.2 mg/kg
Procedure: . Free sulfide was measured using 50 μl of plasma with MBB; whereas for detection of ALS and BSS, 50 μl of plasma was added separately into two sets of 4 mL BD vacutainer tubes. […]. Following a 30-min incubation on a nutator, the reaction liquid was removed, and the evolved sulfide gas subsequently trapped by adding 500 μl of 100 mM Tris-HCl buffer (pH 9.5, 0.1 mM DTPA) into the BD vacutainer tube and incubated again for 30 min on a nutator mixer. […]. Determination of ALS was made by reacting plasma samples with acidic phosphate buffer alone and subsequent trapping of evolved sulfide. Measurement of BSS was determined by subtracting the acid labile value from the total sulfide protocol containing TCEP reductant treatment under acidic conditions. […].
In clinical practice, sugammadex is administered at a dose of 4 mg/kg to up to 16 mg/kg for its current use. In the inventors' mice studies, the inventors used a single injection of 0.2 mg/kg for pharmacokinetic studies, which was a 20 to 80 times lower than the clinical usage of sugammadex.

[3] = molecular target: T1, CSE (Homo sapiens, UniProt P32929); test: CSE activity with Sugammadex in human plasma; parameters: from tissue; host or cells: human blood plasma (lithium heparin)
T1 sequence (P32929 whole entry): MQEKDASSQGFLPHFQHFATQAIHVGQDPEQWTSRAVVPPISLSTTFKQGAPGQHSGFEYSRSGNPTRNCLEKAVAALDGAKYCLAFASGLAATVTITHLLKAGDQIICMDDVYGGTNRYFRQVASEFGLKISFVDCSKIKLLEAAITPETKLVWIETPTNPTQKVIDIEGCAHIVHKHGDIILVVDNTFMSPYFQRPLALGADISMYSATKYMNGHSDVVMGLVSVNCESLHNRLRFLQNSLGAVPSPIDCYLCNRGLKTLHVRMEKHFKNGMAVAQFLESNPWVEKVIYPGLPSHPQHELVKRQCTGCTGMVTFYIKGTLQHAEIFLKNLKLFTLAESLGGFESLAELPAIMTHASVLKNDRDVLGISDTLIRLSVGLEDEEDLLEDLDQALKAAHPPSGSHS
Procedure: (§2) 2.9 Cystathionine γ-lyase (CSE) activity measurement: CSE activity was measured as previously reported. Plasma or tissue lysates were incubated with 2 mM cystathionine, 0.25 mM pyridoxal 5′-phosphate in 100 mM Tris-HCl buffer (pH 8.3) for 60 min at 37° C. 10% Trichloroacetic acid was added into reaction mixture. After centrifugation, the supernatant was mixed with 1% ninhydrin reagent and incubated for 5 min in a boiling-water bath. After heating, the solution was cooled on ice for 2 minutes and color reaction development measured 20 minutes at 455 nm using a spectrophotometer (Biotek). CSE activity was assessed by cystathionine consumption and enzyme activity expressed as fold change calculated from nanomoles of cystathionine consumed per mg of total protein per hour of incubation.

[4] = tested on: femoral artery; settings: mouse, in vivo
[5] = tested on: CSE; type: in vivo, mouse; settings: skeletal muscle tissues of methamphetamine treated mice
[6] = tested on: H2S; type: in vivo, mouse
[7] = tested on: superoxide; test: Oxidative stress measurement (DHE staining) in skeletal muscle; type: in vivo, mouse; settings: skeletal muscle sections, methamphetamine vs saline
Procedure: 2.4 ‘Binge and crash’ mouse methamphetamine model: Twelve-week-old male WT (C57BL6/J) male mice were used for these experiments. Mice were exposed to methamphetamine according to a known protocol that models binge methamphetamine exposure in humans. C57BL/6 male mice received 0-6 mg/kg methamphetamine (Methamphetamine HCl, Sigma-Aldrich, St. Louis, Mo.) through subcutaneous (s.c.) injection five days in a week for four weeks. Methamphetamine was dissolved in a sterile saline (Sigma-Aldrich) solution (0.9% w/v NaCl). Vehicle treated mice received the same volume of saline at all-time points for four weeks. Briefly, methamphetamine-exposed and saline-control mice were injected subcutaneously with methamphetamine or saline in a volume of 5 ml/kg with an insulin syringe. Alternating sites of injection were used to avoid any possible damage to tissue and possible stress of the animal. […]
2.12 Oxidative Stress measurement: Levels of oxidative stress were measured by staining skeletal muscle tissue sections with 5 μM Dihydroethidium (DHE; Sigma-Aldrich, CA USA) and visualized using a NIKON ECLIPSE Ti-E microscope (Nikon Instruments Inc., Melville, N.Y.) for image acquisition. […]

[8] = tested on: H2S; test: Sulfide pools in plasma of human methamphetamine users; settings: methamphetamine-users vs age matched healthy controls
Procedure: 2.6 Human blood collection: Human subjects were interviewed, and medical record data were collected for analysis of methamphetamine-use. Blood samples were collected from already-established catheterization into 6 mL BD vacutainer tubes with lithium heparin. Samples were transported to the lab within 15 min on ice and were centrifuged at 1500 RCF for 4 min at 4° C.
as §1

[9] = tested on: skeletal muscle tissue; type: in vivo, mouse
[10] = tested on: CSE, p-eNOS and total eNOS; test: Western blot of mouse skeletal muscle; type: in vivo; settings: methamphetamine treated mice
Procedure: 2.4 ‘Binge and crash’ mouse methamphetamine model: Twelve-week-old male WT (C57BL6/J) male mice were used for these experiments. Mice were exposed to methamphetamine according to a known protocol that models binge methamphetamine exposure in humans. C57BL/6 male mice received 0-6 mg/kg methamphetamine (Methamphetamine HCl, Sigma-Aldrich, St. Louis, Mo.) through subcutaneous (s.c.) injection five days in a week for four weeks. Methamphetamine was dissolved in a sterile saline (Sigma-Aldrich) solution (0.9% w/v NaCl). Vehicle treated mice received the same volume of saline at all-time points for four weeks. Briefly, methamphetamine-exposed and saline-control mice were injected subcutaneously with methamphetamine or saline in a volume of 5 ml/kg with an insulin syringe. Alternating sites of injection were used to avoid any possible damage to tissue and possible stress of the animal. The dose of methamphetamine was escalated over the course of the first cycle, which occurs during the first week of injections (days 1-5) followed by three weeks of repeated cycles of meth injections (days 8-12, 15-19, and 22-26). Mice received 4 injections per day, 2 hours apart with doses of meth including 0, 1, 2, 3, 4, 5, and 6 mg/kg subcutaneously. At the end of the 4 weeks, mice were sacrificed by isoflurane overdose, plasma and tissue were harvested.
2.10 Western blot analysis: Mouse skeletal muscle tissues were homogenized in a solution containing 50 mM Tris buffer (pH 7.4), 2 mM EDTA, 5 mM EGTA, 0.1% SDS, a protease inhibitor cocktail (Roche, Indianapolis, Ind.), and phosphatase inhibitor cocktail type I and II (Sigma, Saint Louis, Mo.). Homogenates were centrifuged at 500×g for 15 min and supernatants were collected. Protein concentrations were analyzed using the Bradford protein assay (BIORAD, Hercules, Calif.). […] Chemiluminescent bands were detected and quantified using NIH Image J software.

[11] = tested on: NO; test: Total NO in plasma of human methamphetamine users; settings: methamphetamine-users vs healthy controls
[12] = molecular target: T1, CSE; test: CSE enzyme activity in endothelial cells; type: cell-based; parameters: host or cells: HUVEC; settings: HUVECs, 100 μM, 30 min, vs PBS control
Procedure: 2.2 Cell culture and treatments: Human umbilical vein endothelial cells (HUVECs) were purchased from Lifeline Cell Technology (Cat. No. FC-0044) and cultured in VascuLife® Basal Medium (Cat. No. LM-0002) supplemented with the appropriate LifeFactors® Kit (No. LL-0003). All cells were grown in tissue culture flasks at 37° C. and 5% CO2. HUVECs from passages 2-4 were used in the experiments.
as §2

[13] = tested on: NO; test: NO metabolite measurements in mouse plasma and skeletal muscle; type: in vivo
[14] = 4-week binge and crash methamphetamine
[15] = 4-week binge and crash methamphetamine vs controls
[16] = skeletal muscle, methamphetamine treated mice
[17] = skeletal muscle, methamphetamine treatment

## O=C([O-])CCSC[C@@H]1OC2O[C@@H]3[C@@H](O)[C@H](O)C(O[C@@H]4[C@@H](O)[C@H](O)C(O[C@@H]5[C@@H](O)[C@H](O)C(O[C@@H]6[C@@H](O)[C@H](O)C(O[C@@H]7[C@@H](O)[C@H](O)C(O[C@@H]8[C@@H](O)[C@H](O)C(O[C@@H]9[C@@H](O)[C@H](O)C(O[C@@H]1[C@@H](O)[C@@H]2O)O[C@H]9CSCCC(=O)[O-])O[C@H]8CSCCC(=O)[O-])O[C@H]7CSCCC(=O)O)O[C@H]6CSCCC(=O)O)O[C@H]5CSCCC(=O)O)O[C@H]4CSCCC(=O)[O-])O[C@H]3CSCCC(=O)[O-].[Na+].[Na+].[Na+].[Na+].[Na+] [Sugammadex]
[1]
  bound sulfane sulfur: increases
  total sulfide levels: increases
[2]; CSE knockout mice
  plasma sulfide levels: increases
[2]; wild type mice
  plasma sulfide levels: increases
[3]
  plasma CSE activity: increased

## CN[C@@H](C)Cc1ccccc1 [methamphetamine, Methamphetamine hydrochloride]
[4]
  flow mediated vasodilation responses: significantly blunted
  mean blood flow velocity recovery after occlusion removal: significantly blunts
[5]
  CSE activity: significant decrease
[6]; [14]
  reduction in plasma total sulfide: 3 fold
[6]; [15]
  plasma acid-labile sulfide: significant reduction
  plasma bound sulfane sulfur: significant reduction
[7]
  DHE fluorescence (oxidative stress): significant increase
[8]
  acid-labile sulfide levels: decrease
[9]; methamphetamine treated mice
  eNOS expression: no change
[9]; [16]
  CBS gene expression: no significant changes
  CSE gene expression: significantly decreased
[9]; [17]
  ICAM-1 expression: concomitant increase
  VCAM-1 expression: concomitant increase
[9]; skeletal muscles, methamphetamine treatment
  NOx4 expression: marginal increase
[10]
  CSE protein expression: decreased expressions
  p-eNOS protein expression: decreased expressions
  total eNOS protein: no change
[11]
  total NO levels: trend of decreasing
[12]
  CSE enzyme activity: substantially decreased
[13]; [14]
  plasma S-nitrosothiol (bound pool): decreased
  plasma free nitrite: decreased
  plasma total NO levels: two-fold reduction
[13]; methamphetamine treated mice vs saline
  skeletal muscle total NO: significantly reduced
